In paper PMC5660230, “Combined x-ray crystallography and computational modeling approach to investigate the Hsp90 C-terminal peptide binding to FKBP51” (Scientific Reports, 2017):
“Also recorded” adds a separate entry of the source. Residues, ends and D or L forms follow the SMILES beside them.

Legend:
[1] = system: FKBP51; assay: Differential scanning fluorimetry (DSF), melting temperature shift of FKBP51; assay type: binding, human; settings: FKBP51 0.1 mg/ml, 5X SYPRO orange, 0.5X PBS
Experimental: (§1) Differential scanning fluorimetry was performed using Bio-Rad CFX96 qPCR following a well-established protocol. Briefly, 25 µl of solution containing purified FKBP51 at a concentration of 0.1 mg/ml, 5X SYPRO orange (Life Technologies), and Hsp90 C-terminal peptide ranging from 0–500 µM in 0.5X PBS was transferred to a 96-well PCR plate in triplicate. The plate was centrifuged, sealed and the fluorescence was measured using the FRET channel between 20 and 80 °C with an increment of 0.2 °C in each cycle. The melting temperature was determined from the first derivative peaks of the melting curve using Bio-Rad CFX96 manager software. Further, the dissociation constant of the complex between FKBP51 and C90 was determined by fitting the resulting data using single site ligand binding model[35] with the bottom (T1) and top (T2) temperatures fitting to 43.8 and 48.5 °C, respectively. The concentration of FKBP51 (2 µM) was used as the value of the constant P. The fitting was performed using GraphPad Prism, version 7.02. Additionally, we incubated the FKBP51 with 200 µM of control peptide (DDDDDDDDDD) in a similar way.

[2] = target: T1, FKBP51 (TPR domain) (Homo sapiens, UniProt Q13451); assay: Differential scanning fluorimetry (DSF), dissociation constant of FKBP51-C90 complex under thermal denaturation; assay type: binding
T1 construct: FKBP51 full length DNA (IMAGE cDNA clone: 5753397 5′) was PCR amplified; GST (N, cleaved yes); made in house; host or cells: E. coli BL21
T1 sequence (Q13451 1-457): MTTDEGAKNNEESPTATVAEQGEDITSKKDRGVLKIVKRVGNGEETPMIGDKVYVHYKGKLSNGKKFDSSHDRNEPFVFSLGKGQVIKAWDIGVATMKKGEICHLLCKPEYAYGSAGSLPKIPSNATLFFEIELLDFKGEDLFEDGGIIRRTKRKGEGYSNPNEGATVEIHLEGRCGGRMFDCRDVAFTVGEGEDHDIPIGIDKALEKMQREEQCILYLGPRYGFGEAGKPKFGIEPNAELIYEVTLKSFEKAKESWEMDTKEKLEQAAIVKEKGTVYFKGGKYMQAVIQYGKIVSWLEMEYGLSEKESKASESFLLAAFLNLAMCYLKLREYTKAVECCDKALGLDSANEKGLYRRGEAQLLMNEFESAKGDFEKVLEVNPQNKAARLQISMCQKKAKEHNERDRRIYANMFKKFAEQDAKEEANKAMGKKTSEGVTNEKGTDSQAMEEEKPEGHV
Experimental: as §1

| Compound | change in melting point of FKBP51 (control peptide) ([1]; control peptide 200 µM vs 0 µM) | ΔTm (first melting point) ([1]; C90 250 µM vs 0 µM, triplicate, first derivative of melting curve) [°C] | first melting point of FKBP51 in presence of peptide ([1]; C90 250 µM, triplicate, without peptide 44 °C / 43.8 °C) [°C] | second melting point of FKBP51 in presence of peptide ([1]; C90 250 µM, triplicate, without peptide 58.6 °C / 57.8 °C) | Kd ([2]; DSF under thermal denaturation, full-length FKBP51 0.1 mg/ml (2 µM), 5X SYPRO orange, 0.5X PBS, C90 0–250 µM / 0–500 µM (method), triplicate, 20–80 °C, 0.2 °C increments, Tm by first derivative, single site ligand binding model, T1 43.8 and T2 48.5 °C, R^2 0.99) [µM] | dissociation constant compared with reported FKBP38-MEEVD peptide ([2]; DSF value of FKBP51-C90 complex compared with literature value of FKBP38-MEEVD peptide) |
| --- | --- | --- | --- | --- | --- | --- |
| H-DDDDDDDDDD-OH [control peptide, reference compound] | did not lead to any change in the melting point of FKBP51 | – | – | – | – | – |
| CSCC[C@H](NC(=O)[C@H](CCCNC(=N)N)NC(=O)[C@H](CO)NC(=O)[C@@H](NC(=O)[C@H](CC(=O)O)NC(=O)[C@H](Cc1c[nH]cn1)NC(=O)[C@H](Cc1c[nH]cn1)NC(=O)[C@H](Cc1c[nH]cn1)NC(=O)[C@H](Cc1c[nH]cn1)NC(=O)[C@H](Cc1c[nH]cn1)NC(=O)[C@@H](N)Cc1c[nH]cn1)[C@@H](C)O)C(=O)N[C@@H](CCC(=O)O)C(=O)N[C@@H](CCC(=O)O)C(=O)N[C@H](C(=O)N[C@@H](CC(=O)O)C(=O)O)C(C)C [C90] (H-HHHHHHDTSRMEEVD-OH) | – | 4.8 | 48.6 | without much change in the second melting point; also recorded: without affecting the second melting point | 70 ± 32 | very similar to the reported dissociation constant of FKBP38-MEEVD peptide |
